Series [1] deals with periosteal progenitor cells isolated from autograft periosteum. Kind of series: Osteogenic differentiation of periosteal progenitor cells, BMP-2 in combination with TGF-β inhibitor. Type of series: cell-based. The procedure:
To test the potential reciprocal regulation of both BMP and TGF-β signaling in repair, periosteal progenitor cells were isolated from autograft periosteum (Wang, et al. (2010) Am. J. Pathol., 177:3100-3111; Huang, et al. (2014) Mol. Ther., 22:430-439; Huang, et al. (2014) PLoS One, 9:e100079). The osteogenic differentiation of BMP-2 ([…]) in combination with TGF-β inhibitors was examined. Corilagin (1 μm) potentiated the effects of BMP-2 on osteoblastic differentiation as evidenced by increased alkaline phosphatase (ALP) staining and enhanced expression of ALP and osterix (Osx) in 10-day cultures (FIG. 7).

Another series deals with T1, Tgfbrl/ALK5 kinase (Homo sapiens, UniProt P36897).
T1 sequence (P36897 34-503): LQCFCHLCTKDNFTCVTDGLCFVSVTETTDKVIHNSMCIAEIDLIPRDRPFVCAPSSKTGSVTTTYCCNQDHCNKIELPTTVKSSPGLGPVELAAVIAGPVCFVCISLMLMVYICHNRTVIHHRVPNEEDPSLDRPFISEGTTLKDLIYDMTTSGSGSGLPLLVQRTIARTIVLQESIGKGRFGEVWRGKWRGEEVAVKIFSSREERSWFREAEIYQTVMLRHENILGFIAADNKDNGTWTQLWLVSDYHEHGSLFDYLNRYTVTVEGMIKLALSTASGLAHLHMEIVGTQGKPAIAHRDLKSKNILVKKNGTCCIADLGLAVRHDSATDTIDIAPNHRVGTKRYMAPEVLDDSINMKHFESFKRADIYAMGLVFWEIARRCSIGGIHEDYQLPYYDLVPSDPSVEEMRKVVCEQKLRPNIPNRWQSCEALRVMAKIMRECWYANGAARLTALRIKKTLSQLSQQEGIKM
As to conditions: cited from earlier work.

Another series deals with T2, BMP type I receptor ALK2 (Homo sapiens, UniProt Q04771).
T2 sequence (Q04771 21-509): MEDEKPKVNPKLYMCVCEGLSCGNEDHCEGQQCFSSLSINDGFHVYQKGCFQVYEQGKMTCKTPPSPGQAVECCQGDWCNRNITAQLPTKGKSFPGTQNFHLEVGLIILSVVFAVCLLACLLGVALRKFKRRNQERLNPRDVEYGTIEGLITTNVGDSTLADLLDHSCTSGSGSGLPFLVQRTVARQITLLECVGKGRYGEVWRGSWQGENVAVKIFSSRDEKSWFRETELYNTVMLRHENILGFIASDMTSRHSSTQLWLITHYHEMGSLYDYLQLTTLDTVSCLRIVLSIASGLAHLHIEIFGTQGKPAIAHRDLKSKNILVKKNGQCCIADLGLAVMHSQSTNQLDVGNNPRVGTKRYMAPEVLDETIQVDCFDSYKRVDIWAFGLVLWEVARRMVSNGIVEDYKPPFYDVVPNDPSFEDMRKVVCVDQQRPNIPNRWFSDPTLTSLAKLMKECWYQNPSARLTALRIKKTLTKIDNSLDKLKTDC
As to conditions: cited from earlier work.

The target of a further series is BMP type I receptor ALK3 (Homo sapiens, UniProt P36894). As to conditions: cited from earlier work.
BMP type I receptor ALK3, sequence (P36894 24-532): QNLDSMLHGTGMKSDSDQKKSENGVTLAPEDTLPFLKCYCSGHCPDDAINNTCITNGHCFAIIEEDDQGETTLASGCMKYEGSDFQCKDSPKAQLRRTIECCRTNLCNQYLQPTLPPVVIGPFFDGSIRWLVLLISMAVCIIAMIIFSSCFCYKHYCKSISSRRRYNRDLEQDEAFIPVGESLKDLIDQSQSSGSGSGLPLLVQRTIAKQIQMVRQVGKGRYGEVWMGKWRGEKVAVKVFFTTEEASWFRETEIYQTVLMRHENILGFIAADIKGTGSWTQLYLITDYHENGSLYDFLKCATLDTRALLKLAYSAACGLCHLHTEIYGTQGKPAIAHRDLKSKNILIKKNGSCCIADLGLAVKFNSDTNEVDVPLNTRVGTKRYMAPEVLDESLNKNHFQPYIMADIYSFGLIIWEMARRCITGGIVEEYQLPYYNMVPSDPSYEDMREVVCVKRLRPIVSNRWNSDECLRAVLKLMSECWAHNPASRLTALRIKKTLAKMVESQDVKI
In the next series the target is BMP type I receptor ALK6 (Homo sapiens, UniProt O00238). The note with it: cited from earlier work.
BMP type I receptor ALK6, sequence (O00238 14-502): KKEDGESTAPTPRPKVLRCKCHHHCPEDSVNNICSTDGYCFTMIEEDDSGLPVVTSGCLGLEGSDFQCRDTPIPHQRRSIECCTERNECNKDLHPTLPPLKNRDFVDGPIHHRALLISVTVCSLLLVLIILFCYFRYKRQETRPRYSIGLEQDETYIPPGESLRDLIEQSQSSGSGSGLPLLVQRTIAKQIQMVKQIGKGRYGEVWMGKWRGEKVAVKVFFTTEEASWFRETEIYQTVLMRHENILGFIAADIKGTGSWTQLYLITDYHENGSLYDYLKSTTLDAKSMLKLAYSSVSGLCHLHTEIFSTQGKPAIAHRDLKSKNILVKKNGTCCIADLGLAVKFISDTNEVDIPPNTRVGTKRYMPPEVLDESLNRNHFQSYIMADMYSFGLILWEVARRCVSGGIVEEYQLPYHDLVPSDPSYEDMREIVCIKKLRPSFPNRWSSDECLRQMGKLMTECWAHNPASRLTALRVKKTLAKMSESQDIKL
For series [2], the system named is TGF-β-dependent epithelial-mesenchymal transition (EMT). The note with it: cited from earlier work.
For a further series, the system named is fibrosis in lung. The note with it: mouse model; cited from earlier work.
In another series the test system is normal cells and tissues. The note with it: cited from earlier work.
Series [3] in a line: BMP-2 peptide loading and in vitro release from electrospray-coated bone allografts. Type of series: physicochemical. The note with it: from PLGA 50:50 coated allograft, during the first 4 weeks. The procedure: For quantification of peptide loading and release kinetics, 5 mg FITC labeled BMP-2 peptide was dispersed in 5% (w/v) of PLGA in DCM in glass vials and used for electrospray-mediated allograft coating. The amount of BMP-2 peptide loaded per graft was calculated from the difference in the weights of the bone samples before and after electrospray coating as well as accounting for the polymer:peptide ratio of 50:1 (Boda, et al. (2019) Acta Biomater., 85:282-93). The duration of the electrospray coating was adjusted to achieve an increase of 2-3 mg in the weights of the electrospray coated bone samples as compared to the corresponding uncoated ones. The FITC-labeled peptide release from the bone allograft was recorded by measuring the fluorescence intensities of the buffer aliquots at regular intervals using excitation and emission filters of 485 and 528 nm, respectively.
Similarly, to measure the peptide loading and release kinetics from PCL-gelatin coated allografts, the PCL-gelatin HFIP solution containing 5 mg FITC labeled BMP-2 peptide was used for coating. PCL-Gelatin (2.5 wt % each) and 5 mg of BMP-2 peptide were mixed by ultrasonication. […] The peptide release from the PCL-gelatin bone allograft was recorded by measuring the fluorescence intensities of the buffer aliquots at regular intervals (Boda, et al. (2019) Acta Biomater., 85:282-93). […]

A further series concerns receptors of BMPs. The note with it: cited from earlier work.
The mark [4] stands for this setting: Corilagin (1 μm) with BMP-2 (50 μg/ml), 10-day cultures.

`O=C(O[C@@H]1O[C@@H]2COC(=O)c3cc(O)c(O)c(O)c3-c3c(cc(O)c(O)c3O)C(=O)O[C@H]([C@H]1O)[C@@H]2O)c1cc(O)c(O)c(O)c1` [Corilagin]: in series [1] (setting [4]), the “alkaline phosphatase (ALP) staining” value was “increased”, the “effects of BMP-2 on osteoblastic differentiation” value is “potentiated”, the “expression of ALP” value is reported as “enhanced” and the “expression of osterix (Osx)” value is given as “enhanced”. For the same compound, the “synergism with BMP-2” value in series [1] (FIG. 7, ALP and Osx expression after 10 days) is recorded as “strong synergism”. Moreover, the Tgfbrl/ALK5 kinase activity result at Tgfbrl/ALK5 kinase is reported as “strongly inhibits”. For the same compound, the “inhibition of BMP type I receptor ALK2” value at BMP type I receptor ALK2 is listed as “without inhibiting”. In addition, the “inhibition of BMP type I receptor ALK3” value at BMP type I receptor ALK3 is “without inhibiting”. Further, the “inhibition of BMP type I receptor ALK6” value on BMP type I receptor ALK6 is “without inhibiting”. Further, the “TGF-β-dependent epithelial-mesenchymal transition (EMT)” value in [2] is “inhibits”. For the same compound, the fibrosis in lung entry in the series with fibrosis in lung was “attenuates”. Besides, in the series on normal cells and tissues, the “toxicity toward normal cells and tissues” value was “low level”.
With “KIPKASSVPTELSAISTLYL (BMP-2 peptide) [short-chain BMP-2 mimetic peptide (Genscript)]”, the loaded peptide released entry in series [3] was “Nearly all”. For the same compound, in the series on receptors of BMPs, the “binding and activation of the receptors of BMPs” value was “binds and activates”.

The values above are taken from US20230093766A1, “COMPOSITIONS AND METHODS FOR COATING BONE GRAFTS” (BOARD OF REGENTS OF THE UNIVERSITY OF NEBRASKA, priority 2020, published 2023).
